The values that follow are results of earlier work, collected in patent publication US11773445B1, “Diagnostic methods” (GRIFFITH UNIVERSITY, priority 2015, dated 2023).

The conditions of the data set: CFS patients; multiple Rituximab infusions.

Regarding “Rituximab: drug given as multiple infusions to CFS patients in a cited study; anti-CD20 intervention”, the patients responded is given as 15 of 25.
